Our source for the ILS and Astrocyte reversal values is ChEMBL document CHEMBL1123608, “In vivo antitumor activity of 6-benzyl-1,3-benzodioxole derivatives against the P388, L1210, B16, and M5076 murine models” (1987).

As usually defined, the ILS is how much longer treated animals lived than controls. Higher therefore signals much gain in survival.

The test system of test [1] is Mus musculus. In words: In vivo antitumor activity against the L1210 leukemia cell line expressed as percent increase in life span at 200 mg/kg dose. The class given is functional. Conditions: Mus musculus, L1210, dose 200 mg/kg.
The test system of test [2] is Mus musculus. In words: The percent increase in life span on P388 cells which were inoculated intraperitoneally in CD2F1 mice at 800 mg/kg dose placed at ranking order 2. The class given is functional. Conditions: P388, ip, route intraperitoneal.
In test [3] the test system is Mus musculus. In words: In vivo antitumor activity against the M5076 reticulum cell sarcoma expressed as percent increase in life span at 400 mg/kg dose. The class given is functional.
Test [4] has as its system Mus musculus. In words: In vivo antitumor activity against the M5076 reticulum cell sarcoma expressed as percent increase in life span at 800 mg/kg doseEach represents a pair of experiments performed with the same control group. The class given is functional.
The test system of test [5] is Mus musculus. In words: The percent increase in life span on P388 cells which were inoculated intraperitoneally in CD2F1 mice at 200 mg/kg dose placed at ranking order 3. Format: functional. Conditions: P388, ip, route intraperitoneal.
A short description of test [6]: Ability to inhibit the dibutyryl-cAMP-induced change of an immature glioma cell to a mature, differentiated astrocyte by in vitro astrocytoma assay at 100 ug/mL dose (Experiment #2) value may range from 31 to 50. Format: functional, Mus musculus.
Test [7] relates to Mus musculus. In words: Percent increase in life span (ILS) was measured on P388 cells which were inoculated intraperitoneally in CD2F1 mice. Format: functional.
Test [8] has as its system Mus musculus. The test is described as follows: In vivo antitumor activity against the L1210 leukemia cell line expressed as percent increase in life span at 400 mg/kg dose. Format: functional.
The nature of test [9]: Ability to inhibit the dibutyryl-cAMP-induced change of an immature glioma cell to a mature, differentiated astrocyte by in vitro astrocytoma assay at 1 ug/mL dose (Experiment #1) value may range from 0 to 5. Format: functional, Mus musculus.
For test [10], the system named is Mus musculus. The test is described as follows: The percent increase in life span on P388 cells which were inoculated intraperitoneally in CD2F1 mice at 400 mg/kg (tested in the same control) dose placed at ranking order 4. Conditions: P388, ip, route intraperitoneal. The class given is functional.
Test [11] in a line: Ability to inhibit the dibutyryl-cAMP-induced change of an immature glioma cell to a mature, differentiated astrocyte by in vitro astrocytoma assay at 10 ug/mL dose (Experiment #2) value may range from 31 to 50. The class given is functional, Mus musculus.
For test [12], the system named is Mus musculus. The test is described as follows: In vivo antitumor activity against the B16 melanoma cell line expressed as percent increase in life span at 200 mg/kg dose. Format: functional.
Test [13] is described as follows: Ability to inhibit the dibutyryl-cAMP-induced change of an immature glioma cell to a mature, differentiated astrocyte by in vitro astrocytoma assay at 100 ug/mL dose (Experiment #1) value may range from 51 to 70. Format: functional, Mus musculus.
The nature of test [14]: Ability to inhibit the dibutyryl-cAMP-induced change of an immature glioma cell to a mature, differentiated astrocyte by in vitro astrocytoma assay at 10 ug/mL dose (Experiment #1) value may range from 6 to 15. The class given is functional, Mus musculus.
The nature of test [15]: Ability to inhibit the dibutyryl-cAMP-induced change of an immature glioma cell to a mature, differentiated astrocyte by in vitro astrocytoma assay at 1 ug/mL dose (Experiment #2) value may range from 0 to 5. The class given is functional, Mus musculus.
The test system of test [16] is Mus musculus. In words: The percent increase in life span on P388 cells which were inoculated intraperitoneally in CD2F1 mice at 200 mg/kg dose placed at ranking order 1. The class given is functional. Conditions: P388, ip, route intraperitoneal.
For test [17], the system named is Mus musculus. The test is described as follows: In vivo antitumor activity against the B16 melanoma cell line expressed as percent increase in life span at 100 mg/kg dose. Format: functional.
Test [18] has as its system Mus musculus. In words: The percent increase in life span on P388 cells which were inoculated intraperitoneally in CD2F1 mice at 200 mg/kg dose placed at ranking order 2. Format: functional. Conditions: P388, ip, route intraperitoneal.
Test [19] relates to Mus musculus. The test is described as follows: The percent increase in life span on P388 cells which were inoculated intraperitoneally in CD2F1 mice at 400 mg/kg (tested in the same control) dose placed at ranking order 1. Conditions: P388, ip, route intraperitoneal. Format: functional.
For test [20], the system named is Mus musculus. The test is described as follows: The percent increase in life span on P388 cells which were inoculated intraperitoneally in CD2F1 mice at 400 mg/kg dose placed at ranking order 3. Conditions: P388, ip, route intraperitoneal. Format: functional.
Test [21] relates to Mus musculus. The test is described as follows: The percent increase in life span on P388 cells which were inoculated intraperitoneally in CD2F1 mice at 400 mg/kg dose placed at ranking order 4. The class given is functional. Conditions: P388, ip, route intraperitoneal.

Consider `C=CCOc1cc2c(cc1C(C)c1ccc(OC)cc1)OCO2` (configuration not stated), for which the increase in life span (ILS) at 200 mg/kg turned out to be 43% with Mus musculus [1], 41% with Mus musculus [5], 55% in the test with Mus musculus [12] and 88% in the test on Mus musculus [16]. Moreover, the values for the ILS at 800 mg/kg with Mus musculus [2] and with Mus musculus [4] were 84% and 58%, respectively. The ILS at 400 mg/kg was determined as 33% in the test with Mus musculus [3], 39% in the test with Mus musculus [8] and 39% in the test with Mus musculus [10]. Moreover, the Astrocyte reversal is 50% in test [6]; 5% in test [9]; 50% in test [11]; 70% in test [13]; 15% in test [14]; 5% in test [15]. For the same molecule, the ILS with Mus musculus [7] is given as 88%. This molecule gave an increase in lifespan (ILS) at 100 mg/kg in the test on Mus musculus [17] of 27%.
With `CCCOc1cc2c(cc1C(C)c1ccc(OC)cc1)OCO2` (configuration not stated), the increase in life span (ILS) at 200 mg/kg in the test on Mus musculus [18] turned out to be 21%. Moreover, the increase in lifespan (ILS) at 400 mg/kg was 30% in the test on Mus musculus [19], 14% in the test with Mus musculus [20] and 12% in the test with Mus musculus [21]. In the test on Mus musculus [7], this molecule yielded an ILS of 30%.
